Reference: PubChem BioAssay AID180 (DTP/NCI, 2004)
Values joined by “and” are separate entries in the source; they are usually repeats but may differ in a detail not shown here. Equal entries are not always repeated.

Tested on: BDF1 mice, Adenocarcinoma 755 s.c., tumor weight T/C
Assay: NCI In Vivo Anticancer Drug Screen. Data for tumor model Adenocarcinoma 755 (subcutaneous) in B6D2F1 (BDF1) mice
Conditions: endpoint: mean tumor weight, schedule: Q01DX011 (ip), higher = larger tumour
Summary of the method: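 Tumor-bearing mice receive test compound while controls get vehicle alone. Antitumor effect is scored from survival or tumor dimensions as a T/C quotient.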

Nc1nc(=S)c2[nH]cnc2[nH]1
T/C (dose: 0.01 mg/kg/injection, vehicle: saline): 113 % of control
T/C (dose: 0.03 mg/kg/injection, vehicle: saline): 81 % of control
T/C (dose: 0.06 mg/kg/injection, vehicle: saline): 88 % of control
T/C (dose: 0.07 mg/kg/injection, vehicle: alkali diluted with saline): 74 % of control
T/C (dose: 0.07 mg/kg/injection, vehicle: methylcellulose (MC)): 28 % of control
T/C (dose: 0.12 mg/kg/injection, vehicle: carboxymethylcellulose (CMC)): 112 % of control
T/C (dose: 0.12 mg/kg/injection, vehicle: saline): 66 % of control
T/C (dose: 0.13 mg/kg/injection, vehicle: alkali diluted with saline): 95 % of control
T/C (dose: 0.13 mg/kg/injection, vehicle: other): 91 % of control
T/C (dose: 0.13 mg/kg/injection, vehicle: saline): 7 % of control
T/C (dose: 0.18 mg/kg/injection, vehicle: carboxymethylcellulose (CMC)): 32 % of control
T/C (dose: 0.2 mg/kg/injection, vehicle: methylcellulose (MC)): 39 % of control
T/C (dose: 0.24 mg/kg/injection, vehicle: carboxymethylcellulose (CMC)): 77 % of control
T/C (dose: 0.25 mg/kg/injection, vehicle: alkali diluted with saline): 53 % of control
T/C (dose: 0.25 mg/kg/injection, vehicle: distilled water + alcohol): 7 % of control
T/C (dose: 0.25 mg/kg/injection, vehicle: methylcellulose (MC)): 4 % of control and 11 % of control and 15 % of control
T/C (dose: 0.25 mg/kg/injection, vehicle: other): 32 % of control
T/C (dose: 0.35 mg/kg/injection, vehicle: carboxymethylcellulose (CMC)): 9 % of control
T/C (dose: 0.4 mg/kg/injection, vehicle: methylcellulose (MC)): 12 % of control
T/C (dose: 0.47 mg/kg/injection, vehicle: carboxymethylcellulose (CMC)): 34 % of control
T/C (dose: 0.5 mg/kg/injection, vehicle: alkali diluted with saline): 4 % of control
T/C (dose: 0.5 mg/kg/injection, vehicle: distilled water + alcohol): 7 % of control
T/C (dose: 0.5 mg/kg/injection, vehicle: other): 8 % of control
T/C (dose: 0.5 mg/kg/injection, vehicle: saline): 8 % of control
T/C (dose: 0.7 mg/kg/injection, vehicle: carboxymethylcellulose (CMC)): 7 % of control
T/C (dose: 0.94 mg/kg/injection, vehicle: carboxymethylcellulose (CMC)): 30 % of control
T/C (dose: 1.0 mg/kg/injection, vehicle: alkali diluted with saline): 1 % of control
T/C (dose: 1.0 mg/kg/injection, vehicle: carboxymethylcellulose (CMC)): 1 % of control and 2 % of control
T/C (dose: 1.0 mg/kg/injection, vehicle: distilled water + alcohol): 2 % of control
T/C (dose: 1.0 mg/kg/injection, vehicle: other): 3 % of control
T/C (dose: 1.0 mg/kg/injection, vehicle: saline): 2 % of control and 8 % of control
T/C (dose: 1.4 mg/kg/injection, vehicle: carboxymethylcellulose (CMC)): 5 % of control
T/C (dose: 1.5 mg/kg/injection, vehicle: methylcellulose (MC)): 4 % of control
T/C (dose: 2.0 mg/kg/injection, vehicle: alkali diluted with saline): 1 % of control
T/C (dose: 2.0 mg/kg/injection, vehicle: carboxymethylcellulose (CMC)): 1 % of control
T/C (dose: 2.0 mg/kg/injection, vehicle: other): 2 % of control
T/C (dose: 2.0 mg/kg/injection, vehicle: saline): 3 % of control and 7 % of control
T/C (dose: 3.0 mg/kg/injection, vehicle: methylcellulose (MC)): 3 % of control
T/C (dose: 4.0 mg/kg/injection, vehicle: carboxymethylcellulose (CMC)): 1 % of control
T/C (dose: 4.0 mg/kg/injection, vehicle: methylcellulose (MC)): 3 % of control
T/C (dose: 4.0 mg/kg/injection, vehicle: other): 1 % of control
T/C (dose: 46.0 micrograms/kg/injection, vehicle: carboxymethylcellulose (CMC)): 72 % of control
T/C (dose: 49.0 micrograms/kg/injection, vehicle: carboxymethylcellulose (CMC)): 118 % of control
T/C (dose: 58.0 micrograms/kg/injection, vehicle: carboxymethylcellulose (CMC)): 91 % of control
T/C (dose: 62.0 micrograms/kg/injection, vehicle: carboxymethylcellulose (CMC)): 77 % of control
T/C (dose: 77.0 micrograms/kg/injection, vehicle: carboxymethylcellulose (CMC)): 54 % of control
T/C (dose: 82.0 micrograms/kg/injection, vehicle: carboxymethylcellulose (CMC)): 69 % of control
T/C (dose: 90.0 micrograms/kg/injection, vehicle: methylcellulose (MC)): 32 % of control
T/C (dose: 93.0 micrograms/kg/injection, vehicle: carboxymethylcellulose (CMC)): 28 % of control
T/C (dose: 116.0 micrograms/kg/injection, vehicle: carboxymethylcellulose (CMC)): 12 % of control and 36 % of control
T/C (dose: 140.0 micrograms/kg/injection, vehicle: carboxymethylcellulose (CMC)): 11 % of control
T/C (dose: 155.0 micrograms/kg/injection, vehicle: carboxymethylcellulose (CMC)): 6 % of control
T/C (dose: 175.0 micrograms/kg/injection, vehicle: carboxymethylcellulose (CMC)): 4 % of control
T/C (dose: 187.0 micrograms/kg/injection, vehicle: methylcellulose (MC)): 11 % of control
T/C (dose: 232.0 micrograms/kg/injection, vehicle: carboxymethylcellulose (CMC)): 13 % of control
T/C (dose: 233.0 micrograms/kg/injection, vehicle: carboxymethylcellulose (CMC)): 2 % of control and 5 % of control
T/C (dose: 350.0 micrograms/kg/injection, vehicle: carboxymethylcellulose (CMC)): 3 % of control and 4 % of control
T/C (dose: 375.0 micrograms/kg/injection, vehicle: methylcellulose (MC)): 9 % of control
T/C (dose: 490.0 micrograms/kg/injection, vehicle: carboxymethylcellulose (CMC)): 5 % of control
T/C (dose: 750.0 micrograms/kg/injection, vehicle: methylcellulose (MC)): 4 % of control
T/C (dose: 980.0 micrograms/kg/injection, vehicle: carboxymethylcellulose (CMC)): 4 % of control
T/C (dose: 1500.0 micrograms/kg/injection, vehicle: methylcellulose (MC)): 3 % of control
T/C (dose: 3000.0 micrograms/kg/injection, vehicle: methylcellulose (MC)): 4 % of control

CC(=O)Nc1cc2c(cc1Br)-c1ccccc1C2O (configuration not stated)
T/C (dose: 35.0 mg/kg/injection, vehicle: saline): 43 % of control
T/C (dose: 75.0 mg/kg/injection, vehicle: saline): 52 % of control
T/C (dose: 155.0 mg/kg/injection, vehicle: saline): 38 % of control
T/C (dose: 210.0 mg/kg/injection, vehicle: saline): 23 % of control
